Reference: BigSolDB 2.1

COc1ccc(C(=O)O)c(OC)c1OC
solubility (mole fraction)
Conditions | 278.15 K | 283.15 K | 288.15 K | 293.15 K | 298.15 K | 303.15 K | 308.15 K | 313.15 K | 318.15 K
in 2-butoxyethanol | 0.0838 | 0.0944 | 0.113 | 0.127 | 0.148 | 0.167 | 0.185 | 0.207 | 0.25
in 2-ethoxyethanol | 0.179 | 0.207 | 0.238 | 0.264 | 0.289 | 0.318 | 0.353 | 0.39 | 0.431
in 2-methoxyethanol | 0.11 | 0.127 | 0.154 | 0.168 | 0.194 | 0.213 | 0.233 | 0.26 | 0.283
in ethanol | 0.0482 | 0.0585 | 0.0733 | 0.0926 | 0.116 | 0.154 | 0.199 | 0.27 | 0.3
in ethyl acetate | 0.066 | 0.0792 | 0.0992 | 0.112 | 0.13 | 0.174 | 0.236 | 0.283 | 0.301
in ethylene glycol | 0.0165 | 0.0188 | 0.0227 | 0.0281 | 0.036 | 0.0421 | 0.0501 | 0.0635 | 0.0828
in isopropanol | 0.0261 | 0.0363 | 0.0496 | 0.069 | 0.0801 | 0.102 | 0.129 | 0.158 | 0.186
in isopropyl acetate | 0.0412 | 0.0495 | 0.0584 | 0.0692 | 0.0778 | 0.0892 | 0.0988 | 0.115 | 0.137
in n-butyl acetate | 0.047 | 0.0574 | 0.0673 | 0.0751 | 0.0832 | 0.0991 | 0.12 | 0.136 | 0.168
in n-propanol | 0.0312 | 0.0405 | 0.0538 | 0.072 | 0.082 | 0.104 | 0.129 | 0.161 | 0.189
in n-propyl acetate | 0.0357 | 0.0454 | 0.0549 | 0.0722 | 0.0829 | 0.106 | 0.13 | 0.162 | 0.189
in water | 0.000331 | 0.000419 | 0.000497 | 0.000553 | 0.000703 | 0.000892 | 0.00109 | 0.00134 | 0.00152
